The values below are quoted from earlier work in patent publication US5541094A, “Glyoxylic acid/aminomethylphosphonic acid mixtures prepared using a microbial transformant” (E. I. du Pont de Nemours and Company, priority 1994, dated 1996).

For the series, the system named is glycolate oxidase. Conditions: 100 mM; enzyme extracted from tobacco leaves.

For `O=C(O)C(=O)O` [Oxalic acid], the “inhibition of the catalytic action of the glycolate oxidase” value is “inhibit the catalytic action of the glycolate oxidase”.
